Patent US9587005B2 (priority 2010, dated 2017)
Like-named read-outs stand apart in the source and are kept apart here. *1 amine or outer side, *2 acyl side, *3 side chain or, on linkers, in order; H or OH if unused. Where a SMILES comes first, the peptide text is derived from it. Where no end group is shown, it is not given here. Side-chain parts run from the residue outwards. [ ]: non-standard residue; d: D form. The star is where a group is joined. γGlu = O=C(O)[C@H](CCC(=O)[*:2])N[*:1]; Palmitoyl = CCCCCCCCCCCCCCCC(=O)*; Aib = CC(C)(N)C(=O)O

What was measured:
Type in all cases: cell-based
GLP-1 receptor = target: T1, GLP-1 receptor (Homo sapiens, UniProt P43220); assay: cAMP induction, firefly luciferase reporter assay in HEK293 cells co-transfected with GLP-1 receptor; settings: for GLP-1R relative activity: Table 3, relative to the activity of the native hormone
T1 construct: expressed in transfected cells; host or cells: HEK293
T1 sequence (P43220 24-463): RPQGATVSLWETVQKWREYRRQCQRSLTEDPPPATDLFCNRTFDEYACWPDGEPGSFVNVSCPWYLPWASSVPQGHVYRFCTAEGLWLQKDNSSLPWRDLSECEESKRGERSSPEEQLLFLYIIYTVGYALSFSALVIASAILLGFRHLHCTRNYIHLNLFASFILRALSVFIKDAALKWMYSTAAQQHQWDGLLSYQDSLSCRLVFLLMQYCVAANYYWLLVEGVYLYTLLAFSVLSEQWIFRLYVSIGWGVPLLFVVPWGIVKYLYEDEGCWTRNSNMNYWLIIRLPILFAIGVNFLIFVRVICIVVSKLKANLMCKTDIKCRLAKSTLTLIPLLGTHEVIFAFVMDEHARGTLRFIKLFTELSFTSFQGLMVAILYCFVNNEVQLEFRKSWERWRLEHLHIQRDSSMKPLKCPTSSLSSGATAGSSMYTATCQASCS
Source text: (§1) This example describes an exemplary method of testing the biological activity of the peptides of the present disclosures, which method involves assaying cAMP synthesis.

glucagon receptor = target: T2, glucagon receptor (Homo sapiens, UniProt P47871); assay: cAMP induction, firefly luciferase reporter assay in HEK293 cells co-transfected with glucagon receptor; settings: for GR relative activity: Table 3, relative to the activity of the native hormone
T2 construct: expressed in transfected cells; host or cells: HEK293
T2 sequence (P47871 26-477): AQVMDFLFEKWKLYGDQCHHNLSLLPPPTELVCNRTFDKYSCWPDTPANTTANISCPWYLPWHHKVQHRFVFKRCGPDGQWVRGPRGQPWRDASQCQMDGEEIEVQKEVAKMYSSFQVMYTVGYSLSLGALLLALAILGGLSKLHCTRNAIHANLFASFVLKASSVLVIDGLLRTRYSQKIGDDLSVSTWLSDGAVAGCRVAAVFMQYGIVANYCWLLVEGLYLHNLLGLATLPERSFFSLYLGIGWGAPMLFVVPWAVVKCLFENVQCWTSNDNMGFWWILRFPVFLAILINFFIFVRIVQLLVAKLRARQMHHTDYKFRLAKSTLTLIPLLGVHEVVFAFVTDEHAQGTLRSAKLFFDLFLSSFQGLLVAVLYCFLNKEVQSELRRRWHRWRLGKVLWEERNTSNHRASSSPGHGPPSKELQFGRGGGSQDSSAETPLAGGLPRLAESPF
Source text: as §1

GIP receptor = target: T3, GIP receptor (Homo sapiens, UniProt P48546); assay: cAMP induction, firefly luciferase reporter assay in HEK293 cells co-transfected with GIP receptor; settings: for GIPR relative activity: Table 3, relative to the activity of the native hormone
T3 sequence (P48546 22-466): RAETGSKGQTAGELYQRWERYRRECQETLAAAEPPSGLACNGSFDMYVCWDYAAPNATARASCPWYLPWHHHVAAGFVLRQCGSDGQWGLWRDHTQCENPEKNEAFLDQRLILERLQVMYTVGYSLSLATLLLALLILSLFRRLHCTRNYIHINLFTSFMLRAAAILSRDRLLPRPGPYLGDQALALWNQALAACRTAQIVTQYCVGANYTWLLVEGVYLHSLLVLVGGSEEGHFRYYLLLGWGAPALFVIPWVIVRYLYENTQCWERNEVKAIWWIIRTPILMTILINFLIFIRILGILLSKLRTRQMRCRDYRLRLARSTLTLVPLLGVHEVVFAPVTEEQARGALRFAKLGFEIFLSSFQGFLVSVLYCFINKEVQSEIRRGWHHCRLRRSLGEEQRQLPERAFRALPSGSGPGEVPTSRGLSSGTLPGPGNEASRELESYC

[1] = Table 3, Example 8, read-out: GLP-1R EC50
[2] = Table 3, Example 8, read-out: GIPR EC50

`CCCCCCCCCCCCCCCC(=O)N[C@@H](CCC(=O)NCCCC[C@H](NC(=O)[C@H](CC(=O)O)NC(=O)[C@H](CO)NC(=O)[C@@H](NC(=O)[C@H](Cc1ccccc1)NC(=O)[C@@H](NC(=O)CNC(=O)[C@H](CCC(N)=O)NC(=O)C(C)(C)NC(=O)[C@@H](N)Cc1c[nH]cn1)[C@@H](C)O)[C@@H](C)O)C(=O)N[C@@H](CO)C(=O)N[C@@H](CCCCN)C(=O)N[C@@H](Cc1ccc(O)cc1)C(=O)N[C@@H](CC(C)C)C(=O)N[C@@H](CC(=O)O)C(=O)N[C@@H](CCC(=O)O)C(=O)N[C@@H](CCCNC(=N)N)C(=O)N[C@@H](C)C(=O)N[C@@H](C)C(=O)N[C@@H](CCC(N)=O)C(=O)N[C@@H](CC(=O)O)C(=O)N[C@@H](Cc1ccccc1)C(=O)N[C@H](C(=O)N[C@@H](CCC(N)=O)C(=O)N[C@@H](Cc1c[nH]c2ccccc12)C(=O)N[C@@H](CC(C)C)C(=O)N[C@@H](CC(C)C)C(=O)N[C@@H](CC(=O)O)C(=O)NCC(=O)NCC(=O)N1CCC[C@H]1C(=O)N[C@@H](CO)C(=O)N[C@@H](CO)C(=O)NCC(=O)N[C@@H](C)C(=O)N1CCC[C@H]1C(=O)N1CCC[C@H]1C(=O)N1CCC[C@H]1C(=O)N[C@@H](CO)C(N)=O)C(C)C)C(=O)O` [compound 28] gave an EC50 (GLP-1 receptor; EC50 (nM) at GLP-1 Receptor, Table 4, Example 9, composite of multiple different activity assays) of 0.002 nM, an EC50 (GLP-1 receptor; EC50 (nM) at GLP-1 Receptor, Table 7, Example 13) of 0.002 nM and an EC50 (glucagon receptor; EC50 (nM) at Glucagon Receptor, Table 4, Example 9, composite of multiple different activity assays) of 0.002 nM. The EC50 (glucagon receptor; EC50 (nM) at Glucagon Receptor, Table 7, Example 13) was 0.002 nM, the EC50 (GIP receptor; EC50 (nM) at GIP Receptor, Table 4, Example 9, composite of multiple different activity assays) was 0.003 nM and the EC50 (GIP receptor; EC50 (nM) at GIP Receptor, Table 7, Example 13) was 0.003 nM.
Work on “Example 8 peptide: Tyr1, AIB2, Glu16/Lys20 lactam, Leu-Ala-Gly 27-29, GPSSGAPPPS 30-39, or a peptide lacking a lactam [mt-219]” yielded an EC50 (GLP-1 receptor; [1]) of 0.151 nM, a GLP-1R relative activity (GLP-1 receptor) of 16.56% and a GR relative activity (glucagon receptor) of 0.65%. The EC50 (GIP receptor; [2]) was 6.17 nM and the GIPR relative activity (GIP receptor) was “.31%”.
For `CCCCCCCCCCCCCCCC(=O)N[C@@H](CCC(=O)NCCCC[C@H](NC(=O)[C@H](CC(=O)O)NC(=O)[C@H](CO)NC(=O)[C@@H](NC(=O)[C@H](Cc1ccccc1)NC(=O)[C@@H](NC(=O)CNC(=O)[C@H](CCC(N)=O)NC(=O)C(C)(C)NC(=O)[C@@H](N)Cc1c[nH]cn1)[C@@H](C)O)[C@@H](C)O)C(=O)N[C@@H](CO)C(=O)N[C@@H](CCCCN)C(=O)N[C@@H](Cc1ccc(O)cc1)C(=O)N[C@@H](CC(C)C)C(=O)N[C@@H](CC(=O)O)C(=O)N[C@@H](CCC(=O)O)C(=O)N[C@@H](CCCNC(=N)N)C(=O)N[C@@H](CCCNC(=N)N)C(=O)N[C@@H](C)C(=O)NC(C)(C)C(=O)N[C@@H](CCC(=O)O)C(=O)N[C@@H](Cc1ccccc1)C(=O)N[C@H](C(=O)N[C@@H](CCC(N)=O)C(=O)N[C@@H](Cc1c[nH]c2ccccc12)C(=O)N[C@@H](CC(C)C)C(=O)N[C@@H](CC(C)C)C(=O)N[C@@H](CC(=O)O)C(=O)NCC(=O)NCC(=O)N1CCC[C@H]1C(=O)N[C@@H](CO)C(=O)N[C@@H](CO)C(=O)NCC(=O)N[C@@H](C)C(=O)N1CCC[C@H]1C(=O)N1CCC[C@H]1C(=O)N1CCC[C@H]1C(=O)N[C@@H](CO)C(N)=O)C(C)C)C(=O)O` [compound 79] (H-H[Aib]QGTFTSDK([γGlu-Palmitoyl])SKYLDERRA[Aib]EFVQWLLDGGPSSGAPPPS-NH2; N-terminus assumed), the EC50 (GLP-1 receptor; EC50 (nM) at GLP-1 Receptor, Table 6, Example 12) was 0.006 nM, the EC50 (glucagon receptor; EC50 (nM) at Glucagon Receptor, Table 6, Example 12) was 0.004 nM and the EC50 (GIP receptor; EC50 (nM) at GIP Receptor, Table 6, Example 12) was 0.003 nM.
“H[Aib]QGTFTSDYSKYLDERAAQDFVQWLLAGGPSSGAPPPSK([γGlu-γGlu-Palmitoyl])G-NH2 [SEQ ID NO: 203]” was tested, and the EC50 (GLP-1 receptor; EC50 (nM) at GLP-1 receptor, Table 16, Example 24) was 0.001 nM, the EC50 (glucagon receptor; EC50 (nM) at glucagon receptor, Table 16, Example 24) was 0.003 nM and the EC50 (GIP receptor; EC50 (nM) at GIP receptor, Table 16, Example 24) was 0.007 nM.
For “Example 8 peptide: Tyr1, AIB2, Glu16/Lys20 lactam, Leu-Ala-Gly 27-29, GPSSGAPPPS 30-39, or a peptide lacking a lactam [mt-228]”, the EC50 (GLP-1 receptor; [1]) was 0.146 nM, the GLP-1R relative activity (GLP-1 receptor) was 19.86% and the GR relative activity (glucagon receptor) was 1.01%. For the same compound, the EC50 (GIP receptor; [2]) was 2.27 nM and the GIPR relative activity (GIP receptor) was 0.75%.
